Publication PMC11062922 (Nature Chemical Biology, 2023)

Legend:
[1] = biological target: T1, NQO1 (Homo sapiens, UniProt P15559); assay: Kinobeads competition binding: NQO1; details: target NQO1
T1 construct: endogenous in cells
Source text: Supplement 41589_2023_1459_MOESM4_ESM.xlsx, sheet "CATDS matrix" | column: NQO1

[2] = biological target: T2, EPHB4 (Homo sapiens, UniProt P54760); assay: Kinobeads competition binding: EPHB4; details: target EPHB4
T2 construct: endogenous in cells
T2 sequence (P54760 16-987): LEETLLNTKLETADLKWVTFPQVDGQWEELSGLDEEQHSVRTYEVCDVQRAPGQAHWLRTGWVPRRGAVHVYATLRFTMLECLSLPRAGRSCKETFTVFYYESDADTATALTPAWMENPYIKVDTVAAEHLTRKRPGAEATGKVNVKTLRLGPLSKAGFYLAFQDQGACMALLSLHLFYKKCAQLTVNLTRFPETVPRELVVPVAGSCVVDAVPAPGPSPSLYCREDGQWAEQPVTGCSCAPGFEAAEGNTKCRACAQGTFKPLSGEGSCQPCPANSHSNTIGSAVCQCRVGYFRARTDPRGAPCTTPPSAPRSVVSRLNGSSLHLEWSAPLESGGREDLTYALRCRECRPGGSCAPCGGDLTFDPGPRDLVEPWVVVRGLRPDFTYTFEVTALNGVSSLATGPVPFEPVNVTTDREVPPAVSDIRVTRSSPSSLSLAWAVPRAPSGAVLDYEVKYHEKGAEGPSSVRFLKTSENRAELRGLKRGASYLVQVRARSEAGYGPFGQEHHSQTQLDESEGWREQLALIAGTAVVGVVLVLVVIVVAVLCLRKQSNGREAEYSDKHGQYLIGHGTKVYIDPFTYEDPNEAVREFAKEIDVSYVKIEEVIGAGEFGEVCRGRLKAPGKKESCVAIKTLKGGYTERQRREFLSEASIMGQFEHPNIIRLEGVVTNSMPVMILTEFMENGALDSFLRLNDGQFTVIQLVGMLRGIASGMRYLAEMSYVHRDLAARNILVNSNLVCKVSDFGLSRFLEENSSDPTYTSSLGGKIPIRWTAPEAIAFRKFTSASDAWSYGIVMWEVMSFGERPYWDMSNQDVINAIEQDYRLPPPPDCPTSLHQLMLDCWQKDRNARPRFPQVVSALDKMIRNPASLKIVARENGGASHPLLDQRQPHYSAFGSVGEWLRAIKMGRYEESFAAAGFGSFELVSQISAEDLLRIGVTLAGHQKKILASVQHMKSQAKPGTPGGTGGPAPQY

[3] = biological target: T3, ABL2 (Homo sapiens, UniProt P42684); assay: Kinobeads competition binding: ABL2; details: target ABL2
T3 construct: endogenous in cells

[4] = biological target: T4, CSNK1E (Homo sapiens, UniProt P49674); assay: Kinobeads competition binding: CSNK1E; details: target CSNK1E
T4 construct: endogenous in cells

[5] = biological target: T5, AXL (Homo sapiens, UniProt P30530); assay: Kinobeads competition binding: AXL; details: target AXL
T5 construct: endogenous in cells
T5 sequence (P30530 26-894): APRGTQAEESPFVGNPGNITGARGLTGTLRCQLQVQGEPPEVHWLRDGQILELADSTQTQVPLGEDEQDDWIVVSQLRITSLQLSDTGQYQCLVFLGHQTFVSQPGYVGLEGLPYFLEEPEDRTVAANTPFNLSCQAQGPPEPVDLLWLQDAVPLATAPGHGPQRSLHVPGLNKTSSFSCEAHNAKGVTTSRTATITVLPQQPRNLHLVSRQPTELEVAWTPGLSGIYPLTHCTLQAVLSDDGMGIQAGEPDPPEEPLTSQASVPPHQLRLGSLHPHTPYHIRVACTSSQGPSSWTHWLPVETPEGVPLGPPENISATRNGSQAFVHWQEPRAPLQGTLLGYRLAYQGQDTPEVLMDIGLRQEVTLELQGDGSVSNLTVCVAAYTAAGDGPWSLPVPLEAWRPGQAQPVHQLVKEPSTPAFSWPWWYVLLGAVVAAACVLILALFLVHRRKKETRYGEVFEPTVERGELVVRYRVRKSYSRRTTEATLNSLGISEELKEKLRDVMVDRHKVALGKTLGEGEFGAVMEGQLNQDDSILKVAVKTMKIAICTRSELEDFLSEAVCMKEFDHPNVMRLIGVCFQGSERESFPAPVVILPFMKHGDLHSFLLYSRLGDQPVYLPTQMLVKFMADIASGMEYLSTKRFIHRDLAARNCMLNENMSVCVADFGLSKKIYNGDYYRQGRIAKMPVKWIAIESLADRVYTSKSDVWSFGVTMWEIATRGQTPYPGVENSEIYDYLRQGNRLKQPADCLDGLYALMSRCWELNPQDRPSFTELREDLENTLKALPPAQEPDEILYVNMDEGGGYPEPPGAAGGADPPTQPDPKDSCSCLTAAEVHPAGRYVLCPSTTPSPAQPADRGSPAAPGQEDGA
Source text: Supplement 41589_2023_1459_MOESM4_ESM.xlsx, sheet "CATDS matrix" | column: AXL

[6] = biological target: T6, NTRK1 (Homo sapiens, UniProt P04629); assay: Kinobeads competition binding: NTRK1; details: target NTRK1
T6 construct: endogenous in cells

[7] = biological target: T7, ERN2 (Homo sapiens, UniProt Q76MJ5); assay: Kinobeads competition binding: ERN2; details: target ERN2
T7 construct: endogenous in cells

[8] = biological target: T8, CAMK2B (Homo sapiens, UniProt Q13554); assay: Kinobeads competition binding: CAMK2B; details: target CAMK2B
T8 construct: endogenous in cells
Source text: Supplement 41589_2023_1459_MOESM4_ESM.xlsx, sheet "CATDS matrix" | column: CAMK2B

[9] = system: NEK3; assay: Kinobeads competition binding: NEK3; design: species or system human; details: target NEK3
[10] = system: ERCC2; assay: Kinobeads competition binding: ERCC2; design: species or system human; details: target ERCC2
[11] = system: IRAK4; assay: Kinobeads competition binding: IRAK4; design: species or system human; details: target IRAK4

Compound | CATDS [1] | CATDS [2] | CATDS [3] | CATDS [4] | CATDS [5] | CATDS [6] | CATDS [7] | CATDS [8] | CATDS [9] | CATDS [10] | CATDS [11]
Nc1ncnc2[nH]c(-c3ccccc3)nc12 [AH5015_KCGS] | 0 | 0.03489 | 0 | 0 | 0 | 0 | 0 | 0 | 0 | 0.1122 | 0
CCc1cc2c(cc1N1CCC(N3CCOCC3)CC1)C(C)(C)c1[nH]c3cc(C#N)ccc3c1C2=O [Alectinib] | 0 | 0 | 0 | 0 | 0 | 0 | 0 | 0 | 0 | 0 | 0
CCN1CCN(Cc2ccc(Nc3ncc(F)c(-c4cc(F)c5nc(C)n(C(C)C)c5c4)n3)nc2)CC1 [Abemaciclib] | 0 | 0 | 0 |  | 0 | 0 | 0 | 0.1515 | 0 | 0 | 0
CN(C)C/C=C/C(=O)Nc1cc2c(Nc3ccc(F)c(Cl)c3)ncnc2cc1O[C@H]1CCOC1 [Afatinib] | 0 |  |  | 0 | 0 |  |  | 0 |  | 0 | 
N#CC1(c2ccc(NC(=O)c3cccnc3NCc3ccncc3)cc2)CCCC1 [Apatinib] | 0 | 0 | 0 | 0 | 0 | 0 | 0 | 0 | 0 | 0 | 0
